# PubChem BioAssay (NCI)
#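 Tested at 5 concentrations; 48 h exposure; 96-well plates; endpoints linearly interpolated, else capped at highest concentration. The concentration for full growth arrest is given as TGI.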
# Experiments:
# Experiment in all cases: NCI tumour cell line growth inhibition, 48 h
# 786-0 renal = test system: 786-0 renal
# A549 NSCLC = test system: A549 NSCLC
# ACHN renal = test system: ACHN renal
# BT-549 breast = test system: BT-549 breast
# CAKI-1 renal = test system: CAKI-1 renal
# CCRF-CEM leukemia = test system: CCRF-CEM leukemia
# COLO 205 colon = test system: COLO 205 colon
# DU-145 prostate = test system: DU-145 prostate
# HCC-2998 colon = test system: HCC-2998 colon
# HCT-116 colon = test system: HCT-116 colon
# HCT-15 colon = test system: HCT-15 colon
# HL-60(TB) leukemia = test system: HL-60(TB) leukemia
# HOP-62 NSCLC = test system: HOP-62 NSCLC
# HOP-92 NSCLC = test system: HOP-92 NSCLC
# HS 578T breast = test system: HS 578T breast
# HT29 colon = test system: HT29 colon
# IGROV1 ovarian = test system: IGROV1 ovarian
# K-562 leukemia = test system: K-562 leukemia
# KM12 colon = test system: KM12 colon
# LOX IMVI melanoma = test system: LOX IMVI melanoma
# M14 melanoma = test system: M14 melanoma
# MALME-3M melanoma = test system: MALME-3M melanoma
# MCF7 breast = test system: MCF7 breast
# MDA-MB-435 = test system: MDA-MB-435
# MDA-N = test system: MDA-N
# MOLT-4 leukemia = test system: MOLT-4 leukemia
# NCI-H23 lung = test system: NCI-H23 lung
# NCI-H460 lung = test system: NCI-H460 lung
# NCI/ADR-RES ovarian = test system: NCI/ADR-RES ovarian
# OVCAR-3 ovarian = test system: OVCAR-3 ovarian
# OVCAR-4 ovarian = test system: OVCAR-4 ovarian
# OVCAR-5 ovarian = test system: OVCAR-5 ovarian
# PC-3 prostate = test system: PC-3 prostate
# RPMI-8226 leukemia = test system: RPMI-8226 leukemia
# RXF 393 renal = test system: RXF 393 renal
# SF-268 CNS = test system: SF-268 CNS
# SF-295 CNS = test system: SF-295 CNS
# SF-539 CNS = test system: SF-539 CNS
# SK-MEL-2 melanoma = test system: SK-MEL-2 melanoma
# SK-MEL-28 melanoma = test system: SK-MEL-28 melanoma
# SK-MEL-5 melanoma = test system: SK-MEL-5 melanoma
# SK-OV-3 ovarian = test system: SK-OV-3 ovarian
# SN12C renal = test system: SN12C renal
# SNB-19 CNS = test system: SNB-19 CNS
# SNB-75 CNS = test system: SNB-75 CNS
# SR leukemia = test system: SR leukemia
# SW-620 colon = test system: SW-620 colon
# T-47D breast = test system: T-47D breast
# UACC-257 melanoma = test system: UACC-257 melanoma
# UACC-62 melanoma = test system: UACC-62 melanoma
# UO-31 renal = test system: UO-31 renal
smiles,measurement,setting,value
[N-]=[N+]=Nc1c(Cl)c(=O)n(-c2ccccc2)c2ccccc12,TGI,786-0 renal,38.6 µM
same,TGI,A549 NSCLC,> 100 µM
same,TGI,ACHN renal,49.2 µM
same,TGI,BT-549 breast,39.2 µM
same,TGI,CAKI-1 renal,50.5 µM
same,TGI,CCRF-CEM leukemia,56.6 µM
same,TGI,COLO 205 colon,47.1 µM
same,TGI,DU-145 prostate,> 100 µM
same,TGI,HCC-2998 colon,42.7 µM
same,TGI,HCT-116 colon,33.4 µM
same,TGI,HCT-15 colon,43.7 µM
same,TGI,HL-60(TB) leukemia,> 100 µM
same,TGI,HOP-62 NSCLC,58.6 µM
same,TGI,HOP-92 NSCLC,38.3 µM
same,TGI,HS 578T breast,76.9 µM
same,TGI,HT29 colon,59.3 µM
same,TGI,IGROV1 ovarian,30.5 µM
same,TGI,K-562 leukemia,49 µM
same,TGI,KM12 colon,> 100 µM
same,TGI,LOX IMVI melanoma,29.5 µM
same,TGI,M14 melanoma,36.3 µM
same,TGI,MALME-3M melanoma,43.9 µM
same,TGI,MCF7 breast,38.7 µM
same,TGI,MDA-MB-435,35 µM
same,TGI,MDA-N,52.9 µM
same,TGI,MOLT-4 leukemia,38.4 µM
same,TGI,NCI-H23 lung,36.7 µM
same,TGI,NCI-H460 lung,> 100 µM
same,TGI,NCI/ADR-RES ovarian,> 100 µM
same,TGI,OVCAR-3 ovarian,39 µM
same,TGI,OVCAR-4 ovarian,34.7 µM
same,TGI,OVCAR-5 ovarian,42.4 µM
same,TGI,PC-3 prostate,70 µM
same,TGI,RPMI-8226 leukemia,> 100 µM
same,TGI,RXF 393 renal,30.1 µM
same,TGI,SF-268 CNS,43.9 µM
same,TGI,SF-295 CNS,> 100 µM
same,TGI,SF-539 CNS,42.3 µM
same,TGI,SK-MEL-2 melanoma,53.2 µM
same,TGI,SK-MEL-28 melanoma,32.1 µM
same,TGI,SK-MEL-5 melanoma,18.5 µM
same,TGI,SK-OV-3 ovarian,> 100 µM
same,TGI,SN12C renal,51.2 µM
same,TGI,SNB-19 CNS,> 100 µM
same,TGI,SNB-75 CNS,50.8 µM
same,TGI,SR leukemia,> 100 µM
same,TGI,SW-620 colon,31 µM
same,TGI,T-47D breast,28.9 µM
same,TGI,UACC-257 melanoma,47.1 µM
same,TGI,UACC-62 melanoma,29.4 µM
same,TGI,UO-31 renal,52.6 µM
